The values that follow come from patent publication US11565005B2, “Dota-hapten compositions for anti-dota/anti-tumor antigen bispecific antibody pretargeted radioimmunotherapy” (MEMORIAL SLOAN KETTERING CANCER CENTER, priority 2017, dated 2023).

Data set [1] has as its target anti-DOTA-hapten antibody single chain variable fragment C825. The following applies: mean ±SD, read-out: Kd (equilibrium dissociation constant) of C825, cited from earlier work.
The test system of data set [2] is SW1222 tumor. Put plainly: In vivo competition study: maximum tumor uptake of pretargeted DOTA-hapten. On the set-up: species or system mice. On the procedure: In addition to studies with tracer doses of radiolabeled Proteus-DOTA, the upper limit for absolute tumor uptake of radiolabeled Proteus-DOTA was determined using in vivo competition studies. Biodistribution experiments were conducted 24 h following dosing of groups of tumor bearing mice with wide mass range of Proteus-DOTA spanning 2 orders of magnitude (˜170-33800 pmol), showing maximum tumor uptake (“Bmax”) of ˜60 pmol DOTA-hapten/gram of SW1222 tumor. […] Based on a maximum tumor uptake of pretargeted Proteus-DOTA of 62 pmol per gram of SW1222 tumor, ˜180 nCi of ^225Ac could be localized per gram of tumor at SA that are currently achieved with quantitative RCY.

A short description of data set [3]: Dynamic PET imaging and ex vivo biodistribution of [^68Ga]Proteus-DOTA in mice bearing NCI-N87 tumors. On the set-up: species or system nude mice. From the text:
Decay-corrected blood and kidney time-activity curves (TAC) are shown for two individual mice. The blood-TAC for each of the animals was separately curve-fitted to a non-linear two phase decay equation. The (i) percent fast, (ii) half life (slow; minutes), (iii) half-life (fast; minutes), and (iv) R^2 values for mouse 1/mouse 2 were: 46/56, 13.2/13.7, 1.4/0.94, and 0.95/0.99, respectively.
PET Imaging and Biodistribution Studies with […]. […] Nude mice bearing HER2-expressing NCI-N87 human gastric carcinoma subcutaneous xenografts (n=4) were injected with 113-140 μCi ([…]) [^68Ga]Proteus-DOTA and imaged with dynamic positron-emission imaging for […] post-injection (p.i.) (n=2), or with static imaging at 1 h p.i. (n=4). All animals were then sacrificed at 2 hours post injection for ex vivo biodistribution analysis. The list-mode data was histogrammed using the following protocol: 12×10 seconds, 6×30 seconds, 5×60 seconds, 4×300 seconds, 30 min, resulting in […]. Regions-of-interest were drawn around heart (for blood as cardiac outflow) and kidney to determine activity concentrations (as % ID/g).

Data set [4] in a line: Blood half-life and biodistribution of [^111In]Proteus-DOTA in tumor-free nude mice. Format: in vivo, athymic nu/nu female mice. On the procedure: The blood half-life of surrogate [^111In] Proteus-DOTA was determined. Dotted line indicates nonlinear two phase decay analysis used to calculate half-life (R^2=0.913). Data is presented as mean ±SD.
(n=5 mice; given i.v.) in tumor-free healthy athymic nu/nu female mice.
Preparation of [^111In]Proteus-DOTA. Using similar radiochemical methods, [^111In]Proteus-DOTA was prepared from [^111In]indium chloride (Nuclear Diagnostic Products, Inc., Rockaway, N.J.; 249 MBq [6.73 mCi]) and 150 μL of 10 mg/mL Proteus-DOTA (1.5 mg; 1.11 μmoles). The [^111In]Proteus-DOTA yield was >98% and the final Specific Activity was 162.8 GBq/g [4.4 Ci/g] or 2.28 E5 GBq/mol [6160 Ci/mol]. This preparation was used for pharmacokinetic studies. Prior to administration into mice, the [^111In]Proteus-DOTA was purified using a Strata™-X cartridge (33 μm Polymeric Reversed Phase C-18 30 mg/l mL #8B-S100-TAK, Phenomenex® Inc., Torrance, Calif. USA) as described for [^68Ga]Proteus-DOTA and the radiochemical purity was verified to be >98% either using an in vitro binding assay with excess BsAb or by analytical reverse-phase HPLC coupled with radiodetection.
A biodistribution assay conducted at 240 min p.i.

Data set [5] concerns GPA33-expressing SW1222 xenografts. To be noted: anti-GPA33-DOTA-PRIT, 10-50 pmol, 24 hours p.i.; cited from earlier work.
The subject of data set [6] is GD2-expressing IMR-32 human neuroblastoma xenografts. The data set can be described thus: Anti-GD2-DOTA-PRIT pretargeting biodistribution, ^225Ac- vs ^177Lu-DOTA-Bn. It is filed as in vivo, athymic nude mice. To be noted: pretargeted with hu3F8-C825 + clearing agent, 24 hours post-injection. On the procedure: Female athymic nude mice bearing subcutaneous GD2-expressing IMR-32 human neuroblastoma xenografts in the right-hand flank were injected intravenously (i.v.) via the lateral tail-vein with three separate reagents: (1) hu3F8-C825 (0.25 mg, 1.19 nmol) [t=−28 hours (h)], followed by (2) 0.1 mg 500 kD-dextran-DOTA-Bn(Y) (0.2 nmol of CA; 146 DOTA-Bn(Y)/mol of dextran, 29 nmol of DOTA-Bn(Y)) [t=−4 h] and (3) an equimolar amount of either ^177Lu- or ^225Ac-DOTA-Bn (50 μCi and 100 μCi of ^177Lu and ^225Ac, respectively, 8-10 pmol) at [t=0 h]. Mice were sacrificed at 24 h post-injection of radiotracer for biodistribution assay of tumor and select normal tissues. The average tumor masses were as follows (presented as average ±SD): 0.77±0.62 g and 0.49±0.28 g for ^177Lu and ^225Ac cohorts, respectively. Activity concentration data are expressed as the mean % ID/g standard error of the mean (SEM). Errors for the tumor-to-tissue ratios are calculated as the geometric mean of the standard errors of the mean. Student's t-test p-values highlighted in bold are considered significant (p<0.05).

The mark [7] stands for this setting: biphasic, nonlinear two phase decay, R^2=0.913.

Where “and” joins values, the source holds several entries; their conditions need not be identical. Identical values can stand only once. Like-named read-outs stand apart in the source and are kept apart here.

On to `Nc1ccc(CC2CN(CC(=O)[O-])CCN(CC(=O)O)CCN(CC(=O)[O-])CCN2CC(=O)[O-])cc1.[Lu+3]` (stereo not drawn) [DOTA-Bn complex of Lu, S-2-(4-aminobenzyl)-1,4,7,10-tetraazacyclododecane tetraacetic acid chelate], for which the Kd in data set [1] (listed as benzyl-DOTA (Lu) hapten) was 0.01 nM; in data set [1], 0.0108 ± 0.0025 nM.

Regarding `O=C([O-])CN1CCN(CC(=O)[O-])CCN(CC(=O)NCCOCCOCCOCCOCCNC(=S)Nc2ccc(CC3CN(CC(=O)[O-])CCN(CC(=O)[O-])CCN(CC(=O)[O-])CCN3CC(=O)[O-])cc2)CCN(CC(=O)[O-])CC1.[Lu+3]` (stereo not drawn) [Proteus-DOTA], the “^225Ac that could be localized per gram of tumor” value in data set [2] (based on 62 pmol per gram at currently achieved SA) is recorded as approximately 180 nCi. The “maximum tumor uptake ("Bmax")” value in data set [2] (pretargeted, 24 h after dosing, ~170-33800 pmol) was ~60 pmol DOTA-hapten/gram of SW1222 tumor and 62 pmol DOTA-hapten/gram of SW1222 tumor.

In data set [3] (2 h p.i., n = 4), `O=C([O-])CN1CCN(CC(=O)[O-])CCN(CC(=O)NCCOCCOCCOCCOCCNC(=S)Nc2ccc(CC3CN(CC(=O)[O-])CCN(CC(=O)[O-])CCN(CC(=O)[O-])CCN3CC(=O)[O-])cc2)CCN(CC(=O)[O-])CC1.[68Ga+3].[Lu+3]` (stereo not drawn) [[^68Ga]Proteus-DOTA] gave a Blood activity concentration of 2.29 ± 0.31 % ID/g, a Bone activity concentration of 0.39 ± 0.07 % ID/g, a Heart activity concentration of 0.75 ± 0.10 % ID/g and a Kidneys activity concentration of 1.53 ± 0.50 % ID/g. In addition, in data set [3] (2 h p.i., n = 4), the “Large Intestine activity concentration” value was determined as 0.44 ± 0.10 % ID/g, the Liver activity concentration is given as 1.19 ± 0.08 % ID/g, the Lungs activity concentration was 1.00 ± 0.13 % ID/g and the Muscle activity concentration came out at 0.17 ± 0.03 % ID/g. Moreover, in data set [3] (2 h p.i., n = 4), the “Small Intestine activity concentration” value is listed as 0.59 ± 0.21 % ID/g, the Spleen activity concentration is listed as 0.56 ± 0.13 % ID/g and the Stomach activity concentration was determined as 0.19 ± 0.05 % ID/g. Also, in data set [3] (NCI-N87 tumor, 2 h p.i., n = 4), the Tumor activity concentration came to 0.65 ± 0.08 % ID/g. In addition, in data set [3] (mouse 1, two phase decay fit), the “blood half life (slow)” value worked out at 13.2 min; the “blood half-life (fast)” value amounted to 1.4 min; the “blood time-activity curve, percent fast” value worked out at 46. Moreover, in data set [3] (mouse 2, two phase decay fit), the “blood half life (slow)” value was 13.7 min; the “blood half-life (fast)” value turned out to be 0.94 min; the “blood time-activity curve, percent fast” value was found to be 56.

For the compound `O=C([O-])CN1CCN(CC(=O)[O-])CCN(CC(=O)NCCOCCOCCOCCOCCNC(=S)Nc2ccc(CC3CN(CC(=O)[O-])CCN(CC(=O)[O-])CCN(CC(=O)[O-])CCN3CC(=O)[O-])cc2)CCN(CC(=O)[O-])CC1.[111In+3].[Lu+3]` (stereo not drawn) [[^111In]Proteus-DOTA], the “kidney retention (percent injected activity per gram of tissue)” value in data set [4] (240 min p.i., i.v., n=5, mean ±SD) was 0.96±0.25 % IA/g. Besides, the “remaining ^111In-activity in carcass after tissue dissection” value in data set [4] (240 min p.i., n=5, mean ±SD) worked out at 0.952±0.162 % ID. The “share of alpha phase of blood clearance” value in data set [4] (biphasic, nonlinear two phase decay) is 87.7%. For the same compound, in data set [4] (setting [7]), the “blood half-life (alpha)” value was determined as 7.49 min and the “blood half-life (beta)” value came to 24.8 min.

With `Nc1ccc(CC2CN(CC(=O)[O-])CCN(CC(=O)[O-])CCN(CC(=O)[O-])CCN2CC(=O)[O-])cc1.[86Y+3]` (stereo not drawn) [^86Y-DOTA-Bn], the mean tumor uptake in data set [5] is recorded as approximately 8 % ID/g.

Turning to `Nc1ccc(CC2CN(CC(=O)[O-])CCN(CC(=O)[O-])CCN(CC(=O)[O-])CCN2CC(=O)[O-])cc1.[177Lu+3]` (stereo not drawn) [^177Lu-DOTA-Bn], in data set [2] (pretargeted, same system, i.v. administered dose of 600 pmol), the maximum tumor uptake is reported as approximately 60 pmol/g. In data set [6], the Blood uptake was determined as 0.49±0.09 % ID/g and the kidney uptake is listed as 0.83±0.10 % ID/g. Further, the tumor uptake in data set [6] (IMR-32 xenograft, n=5) was found to be 10.29±2.87 % ID/g. For the same compound, the mean tumor uptake in data set [5] is approximately 8 % ID/g.
